In patent US20200038392A1, “TOPICAL COMPOSITIONS AND METHODS OF PREPARATION AND USE” (Aldeyra Therapeutics, Inc., priority 2018, published 2020):
In brackets after ≈: the same amount, converted by molar mass. Read-outs that look alike come from different tables or passages of the source.

What was measured:
[1] = format: physicochemical
Description: It is important to note that the comparison formulation has a nominal ADX-102 concentration of 1.0% w/w, which was higher than that observed in the aqueous phase of the comparison formulation (0.31% w/w). […] However, it is possible that oil phase excipients may assist in solubilizing ADX-102, allowing it to partition between phases.

[2] = ADX-102 oxidation investigation: peroxide spiking (H2O2, NMP) and high temperature stress in PEG 400; format: physicochemical; settings: both peroxide spiking experiments (H2O2 and NMP); t=48 h at 70° C.
Description: A preliminary study was performed in an attempt to degrade ADX-102 to a suitable level such that oxidation products observed during long-term stability could be detected. To this end, an ADX-102 in PEG 400 stock solution (0.1% w/w) was prepared and degraded with hydrogen peroxide (H2O2) and N-methylpyrrolidone (NMP) at 0.1 and 1.0% w/w concentrations, respectively. Additionally, the stocks were stressed at 40 and 70° C. to increase degradation. […] Sufficient degradation of ADX-102 was observed following spiking with […] H2O2 and storage at 70° C. for 48 h condition and was therefore considered suitable for use in antioxidant/stabilizer selection experiments described below.

[3] = Saturated solubility of ADX-102 in DoE solvent systems; format: physicochemical; settings: solvent system SS26; range in brackets
Description: Following the visual assessment of placebo formulations, a DoE mixture design for ADX-102 aqueous phase solvent systems was prepared, as shown in Table 22. This was performed in order to assess the solubility of ADX-102 in solvent systems and to confirm that at least a 1.0% w/w and a 5% w/w concentration of ADX-102 in the aqueous phase of the formulation was obtainable. The following excipient levels were assessed during the solvent system DoE experiments: • Water: 0-50% • Transcutol® HP: 0-20% • SR PEG 400: 0-60% • Ethanol: 0-20% • Propylene glycol: 0-15%
SS19, along with SS20 (SS21 was not used due to the high levels of Transcutol® HP), were used as a base for further solvent system development. SS23-SS26 were prepared, broadly based on these systems, with varying levels of excipient and added antioxidant/stabilizer, and preservative. The compositions of these solvent systems are detailed in Table 25. Additionally, penetration enhancers were varied in the developed solvent system, with SS23 (based on SS19) including no Transcutol® and SS25 including diisopropyl adipate, and in the case of SS24, a humectant (glycerol). It should be noted that SS25 became turbid following the addition of diisopropyl adipate.
The solvent system SS26 was developed in order to manufacture a 5% w/w formulation. […]

[4] = Super-refined PEG 400 versus non-refined PEG 400: saturated solubility and chemical stability of ADX-102; format: physicochemical; settings: in PEG 400 (non-super refined)
Description: The use and requirement of non-super refined PEG 400 as an excipient was investigated in view of to the higher cost of SR PEG 400. Saturated solubility and chemical stability of ADX-102 in PEG 400 (non-super refined) was performed as described above.

[5] = Solubility of ADX-102 in potential receiver fluid systems; format: physicochemical; settings: aqueous with cosolvent or surfactant or cyclodextrin
Description: The solubility of the drug in a range of receiver fluid systems was determined to ensure that drug release was not limited by the solubility of ADX-102 in the receptor compartment of Franz cells. The receiver fluids selected for investigation were: ethanol and water (50:50 v/v), 2% Brij 98 in ethanol and water (50:50 v/v), 20% PEG in water, 20% PEG 400 in ethanol and water (50:50 v/v) and 2% Tween 80 in water. The findings are summarized below.

- Saturated solubility [1]: 0.31 % w/w
- solubility [1]: 0.31%
- ADX-102 remaining after degradation [2]: < 70%
- ADX-102 saturated solubility (% w/w) [3]: 6.85 (6.84-6.86) % w/w
- Saturated solubility [4]: > 20.00 % w/w
- solubility ([5]; receiver fluid 1: Ethanol and water (50:50 v/v)): 23.5 mg/mL (≈ 99.5 mM)
- solubility ([5]; receiver fluid 1: ethanol and water (50:50 v/v)): 23.6 mg/mL (≈ 99.5 mM)
- solubility ([5]; receiver fluid 2: 2% Brij 98 in ethanol and water (50:50 v/v)): 28.3 mg/mL (≈ 120 mM)
- solubility ([5]; receiver fluid 3: 20% PEG 400 in water): 1.31 mg/mL (≈ 5.53 mM)
- solubility ([5]; receiver fluid 4: 20% PEG 400 in ethanol and water (50:50 v/v)): 20.5 mg/mL (≈ 86.4 mM)
- solubility ([5]; receiver fluid 5: 2% Tween 80 in water): 26.3 mg/mL (≈ 111 mM)
- solubility ([5]; receiver fluid systems for Franz cells, range over the investigated receiver fluid systems): 1.31 to 28.4 mg/mL (≈ 5.53 to 120 mM)
Structure (SMILES): CC(C)(O)c1nc2ccc(Cl)cc2cc1N [ADX-102, 2-[3-amino-6-chloro-quinolin-2-yl]-propan-2-ol]
